Source: patent US20200038513A1, “MODULATORS OF FAK PROTEOLYSIS AND ASSOCIATED METHODS OF USE” (ARVINAS OPERATIONS, INC., priority 2018, published 2020)

Tested on: MDA-MB-231 cells
Test: RPPA (reverse phase protein array)
Type: cell-based, human
Experimental: RPPA analysis was performed by MD Anderson Cancer Center RPPA core facility.
Examination of the Molecular Signaling Events) and/or Downstream Pathways Responsible for the Migration and Invasion Effects Observed by Exemplary Compound Treatment. To pinpoint these observations to a molecular signaling event or specific downstream pathway, reverse phase protein array (RPPA) analysis was performed (Table 4).

## CNC(=O)c1ccc(Nc2ncc(C(F)(F)F)c(NCc3nccnc3N(C)S(C)(=O)=O)n2)cc1 [Defactinib, defactinib, reference compound]
1000nM
  rel. Protein level, Merlin: 99.3%
  rel. Protein level, Mnk1: 97.5%
  rel. Protein level, Myosin-11: 100.9%
  rel. Protein level, Myosin-IIa_pS1943: 108.6%
  rel. Protein level, Myt1: 94.5%
  rel. Protein level, N-Cadherin: 107.8%
  rel. Protein level, N-Ras: 93.7%
  rel. Protein level, NAPSIN-A: 99.4%
  rel. Protein level, NDRG1_pT346: 103.5%
  rel. Protein level, NDUFB4: 96.3%
  rel. Protein level, NF-kB-p65_pS536: 105.0%
  rel. Protein level, Notch1: 96.2%
  rel. Protein level, Notch3: 105.9%
  rel. Protein level, Oct-4: 100.5%
  rel. Protein level, P-Cadherin: 104.3%
  rel. Protein level, PAI-1: 106.1%
  rel. Protein level, PAICS: 98.7%
  rel. Protein level, PAK1: 107.0%
  rel. Protein level, PAK4: 95.5%
  rel. Protein level, PAR: 135.9%
  rel. Protein level, PARP: 98.0%
  rel. Protein level, PCNA: 88.7%
  rel. Protein level, PD-1: 107.0%
  rel. Protein level, PD-L1: 92.6%
  rel. Protein level, PDGFR-b: 138.5%
  rel. Protein level, PDHK1: 102.5%
  rel. Protein level, PDK1: 99.8%
  rel. Protein level, PDK1_pS241: 97.4%
  rel. Protein level, PEA-15: 98.7%
  rel. Protein level, PEA-15_pS116: 97.0%
  rel. Protein level, PI3K-p85: 100.0%
  rel. Protein level, PI3K-p110-a: 103.7%
  rel. Protein level, PI3K-p110-b: 98.5%
  rel. Protein level, PKA-a: 99.6%
  rel. Protein level, PKC-b-II_pS660: 98.6%
  rel. Protein level, PKC-delta_pS664: 100.9%
  rel. Protein level, PKCa: 110.1%
  rel. Protein level, PKM2: 106.2%
  rel. Protein level, PLC-gamma2_pY759: 97.2%
  rel. Protein level, PLK1: 82.1%
  rel. Protein level, PMS2: 98.6%
  rel. Protein level, PR: 100.3%
  rel. Protein level, PRAS40: 98.3%
  rel. Protein level, PRAS40_pT246: 90.7%
  rel. Protein level, PREX1: 105.2%
  rel. Protein level, PTEN: 108.6%
  rel. Protein level, Paxillin: 105.5%
  rel. Protein level, Pdcd4: 117.5%
  rel. Protein level, Porin: 95.2%
  rel. Protein level, RBM15: 103.9%
  rel. Protein level, RIP: 103.7%
  rel. Protein level, RPA32: 96.8%
  rel. Protein level, RPA32_pS4-S8: 93.9%
  rel. Protein level, RSK: 104.4%
  rel. Protein level, Rab11: 101.7%
  rel. Protein level, Rab25: 97.8%
  rel. Protein level, Rad50: 104.7%
  rel. Protein level, Rad51: 102.1%
  rel. Protein level, Raptor: 98.9%
  rel. Protein level, Rb: 93.9%
  rel. Protein level, Rb_pS807_S811: 84.3%
  rel. Protein level, Rheb: 91.7%
  rel. Protein level, Rictor: 111.8%
  rel. Protein level, Rictor_pT1135: 90.0%
  rel. Protein level, S6: 102.7%
  rel. Protein level, S6_pS235_S236: 50.9%
  rel. Protein level, S6_pS240_S244: 49.1%
  rel. Protein level, b-Actin: 101.1%
  rel. Protein level, b-Catenin: 100.0%
  rel. Protein level, b-Catenin_pT41_S45: 98.3%
  rel. Protein level, c-Abl: 109.1%
  rel. Protein level, c-IAP2: 94.3%
  rel. Protein level, c-Jun_pS73: 92.7%
  rel. Protein level, c-Kit: 101.5%
  rel. Protein level, c-Met_pY1234_Y1235: 98.9%
  rel. Protein level, c-Myc: 95.9%
  rel. Protein level, cdc2_pY15: 90.1%
  rel. Protein level, cdc25C: 98.2%
  rel. Protein level, eEF2: 94.8%
  rel. Protein level, eEF2K: 116.4%
  rel. Protein level, eIF4E: 105.5%
  rel. Protein level, eIF4E_pS209: 95.7%
  rel. Protein level, eIF4G: 95.8%
  rel. Protein level, mTOR: 92.1%
  rel. Protein level, mTOR_pS2448: 88.3%
  rel. Protein level, p21: 100.5%
  rel. Protein level, p27-Kip-1: 96.7%
  rel. Protein level, p27_pT198: 96.4%
  rel. Protein level, p38-MAPK: 94.3%
  rel. Protein level, p38_pT180_Y182: 100.6%
  rel. Protein level, p44-42-MAPK: 108.2%
  rel. Protein level, p53: 93.7%
  rel. Protein level, p70-S6K1: 111.0%
  rel. Protein level, p70-S6K_pT389: 95.5%
  rel. Protein level, p90RSK_pT573: 98.9%
Antibody SCD, 1000nM, n = 2
  rel. Protein level [%], SCD: 98.9%
Antibody SDHA, 1000nM, n = 2
  rel. Protein level [%], SDHA: 103.8%
Antibody SF2, 1000nM, n = 2
  rel. Protein level [%], SF2: 95.8%
Antibody SHP-2_pY542, 1000nM, n = 2
  rel. Protein level [%], SHP-2_pY542: 97.2%
Antibody SLC1A5, 1000nM, n = 2
  rel. Protein level [%], SLC1A5: 111.6%
Antibody SOD1-, 1000nM, n = 2
  rel. Protein level [%], SOD1-: 97.7%
Antibody SOD2, 1000nM, n = 2
  rel. Protein level [%], SOD2: 106.0%
Antibody STING, 1000nM, n = 2
  rel. Protein level [%], STING: 135.4%
Antibody Shc_pY317, 1000nM, n = 2
  rel. Protein level [%], Shc_pY317: 104.3%
Antibody Slfn11, 1000nM, n = 2
  rel. Protein level [%], Slfn11: 95.9%
Antibody Smac, 1000nM, n = 2
  rel. Protein level [%], Smac: 99.9%
Antibody Smad1, 1000nM, n = 2
  rel. Protein level [%], Smad1: 97.8%
Antibody Smad3, 1000nM, n = 2
  rel. Protein level [%], Smad3: 102.3%
Antibody Smad4, 1000nM, n = 2
  rel. Protein level [%], Smad4: 95.2%
Antibody Snail, 1000nM, n = 2
  rel. Protein level [%], Snail: 101.3%
Antibody Sox2, 1000nM, n = 2
  rel. Protein level [%], Sox2: 100.5%
Antibody Src, 1000nM, n = 2
  rel. Protein level [%], Src: 103.9%
Antibody Src_pY419, 1000nM, n = 2
  rel. Protein level [%], Src_pY419: 99.6%
Antibody Src_pY527, 1000nM, n = 2
  rel. Protein level [%], Src_pY527: 93.7%
Antibody Stat3, 1000nM, n = 2
  rel. Protein level [%], Stat3: 92.9%
Antibody Stat3_pY705, 1000nM, n = 2
  rel. Protein level [%], Stat3_pY705: 100.5%
Antibody Stat5a, 1000nM, n = 2
  rel. Protein level [%], Stat5a: 108.2%
Antibody Stathmin-1, 1000nM, n = 2
  rel. Protein level [%], Stathmin-1: 99.3%
Antibody Syk, 1000nM, n = 2
  rel. Protein level [%], Syk: 95.8%
Antibody TAZ, 1000nM, n = 2
  rel. Protein level [%], TAZ: 100.5%
Antibody TFAM, 1000nM, n = 2
  rel. Protein level [%], TFAM: 101.4%
Antibody TFRC, 1000nM, n = 2
  rel. Protein level [%], TFRC: 96.3%
Antibody TIGAR, 1000nM, n = 2
  rel. Protein level [%], TIGAR: 100.5%
Antibody TRIM25, 1000nM, n = 2
  rel. Protein level [%], TRIM25: 99.8%
Antibody TSC1, 1000nM, n = 2
  rel. Protein level [%], TSC1: 102.5%
Antibody TTF1, 1000nM, n = 2
  rel. Protein level [%], TTF1: 95.4%
Antibody TUFM, 1000nM, n = 2
  rel. Protein level [%], TUFM: 98.4%
Antibody TWIST, 1000nM, n = 2
  rel. Protein level [%], TWIST: 97.7%
Antibody Tau, 1000nM, n = 2
  rel. Protein level [%], Tau: 102.9%
Antibody Transglutaminase, 1000nM, n = 2
  rel. Protein level [%], Transglutaminase: 93.5%
Antibody Tuberin, 1000nM, n = 2
  rel. Protein level [%], Tuberin: 101.7%
Antibody Tuberin_pT1462, 1000nM, n = 2
  rel. Protein level [%], Tuberin_pT1462: 93.6%
Antibody Tyro3, 1000nM, n = 2
  rel. Protein level [%], Tyro3: 98.5%
Antibody U-Histone-H2B, 1000nM, n = 2
  rel. Protein level [%], U-Histone-H2B: 113.8%
Antibody UBAC1, 1000nM, n = 2
  rel. Protein level [%], UBAC1: 99.7%
Antibody UGT1A, 1000nM, n = 2
  rel. Protein level [%], UGT1A: 98.6%
Antibody ULK1_pS757, 1000nM, n = 2
  rel. Protein level [%], ULK1_pS757: 102.1%
Antibody VASP, 1000nM, n = 2
  rel. Protein level [%], VASP: 100.5%
Antibody VEGFR-2, 1000nM, n = 2
  rel. Protein level [%], VEGFR-2: 93.5%
Antibody VHL-EPPK1, 1000nM, n = 2
  rel. Protein level [%], VHL-EPPK1: 88.7%
Antibody WIPI1, 1000nM, n = 2
  rel. Protein level [%], WIPI1: 102.3%
Antibody WIPI2, 1000nM, n = 2
  rel. Protein level [%], WIPI2: 106.2%
Antibody Wee1, 1000nM, n = 2
  rel. Protein level [%], Wee1: 95.3%
Antibody Wee1_pS642, 1000nM, n = 2
  rel. Protein level [%], Wee1_pS642: 95.2%
Antibody XBP-1, 1000nM, n = 2
  rel. Protein level [%], XBP-1: 89.5%
Antibody XPA, 1000nM, n = 2
  rel. Protein level [%], XPA: 83.5%
Antibody XPF, 1000nM, n = 2
  rel. Protein level [%], XPF: 100.5%
Antibody XRCC1, 1000nM, n = 2
  rel. Protein level [%], XRCC1: 102.3%
Antibody YAP, 1000nM, n = 2
  rel. Protein level [%], YAP: 93.7%
Antibody YAP_pS127, 1000nM, n = 2
  rel. Protein level [%], YAP_pS127: 103.1%
Antibody YB1_pS102, 1000nM, n = 2
  rel. Protein level [%], YB1_pS102: 82.7%
Antibody ZAP-70, 1000nM, n = 2
  rel. Protein level [%], ZAP-70: 95.1%
